For one assay, the target named is DGKα (Homo sapiens (Human), UniProt P23743). The experiment in a line: In vitro DGKα inhibition assay (ADP-Glo). Particulars: His-tagged human recombinant enzyme, 0.1 nM DGKα, 50 μM ATP, 20 μM DLG, 90 minute incubation. The assay is classed as biochemical. The method, then: (§1) The DGKα and DGKξ biochemical reactions were performed using His-tagged human recombinant enzymes (Signal Chem, DGKα, #D21-1OBH; DGKξ, #D30-10H)) and DLG (Dilauroyl-sn-glycerol) lipid substrate (Signal Chem, #D430-59). ADP-Glo assay was performed using ADP-Glog™ kinase Assay kit (Promega, #V9104). The reactions were carried out in assay buffer containing 40 mM Tris, pH 7.5, 0.1% CHAPS, 0.1% Prionex, 40 mM NaCl, 5 mM MgCl2, 1 mM CaCl2, and 1 mM DTT. DGKα reactions contained 0.1 nM DGKα, 50 μM ATP, and 20 μM DLG. And DGKC reactions contained 0.4 nM DGK, 30 μM ATP, and 20 μM DLG.
(§2) For compound inhibition studies, 40 nL test compound in DMSO was added to wells of white polystyrene plates in 384-well (Greiner, #784075) or 1536-well format (Greiner, #782075). Compounds were added with top concentration of 2 mM with 11 point, 3-fold dilution series. Enzyme solution (contains 2×DGK enzyme concentration in Ix assay buffer) was added to the plate in 2 μL/well volume, followed by 2 μL/well of substrate solution (contains 2×concentration of ATP and DLG substrate in Ix assay buffer). Plates were then centrifuged for 1 min at 1200 RPM and sealed or lidded. For 4 μL reaction volume, test compounds were therefore diluted 100× to final top concentration of 20 μM. After 90 minute incubation, reactions were quenched by addition of 2 μL/well Promega ADP-Glo Reagent, followed by centrifugation and lidding. After 60 min incubation, 2 μL/well Promega Kinase Detection Reagent was added, plates centrifuged, and incubated for 30 min. Plates were then read using Luminescence method on BMG PHERAstar FSX plate reader. Percent inhibition was calculated and IC50s were determined using 4-parameter fit in Genedata Screener. Labcyte Echo acoustic dispenser was used for compound addition, and Formulatrix Tempest liquid handler was used for all reagent dispenses.

In a further assay the target is DGKζ (Homo sapiens (Human), UniProt Q13574). Nature of the assay: In vitro DGKζ inhibition assay (ADP-Glo). The assay is classed as biochemical. Particulars: His-tagged human recombinant enzyme, 0.4 nM DGK, 30 μM ATP, 20 μM DLG, 90 minute incubation. The method, then: as §1, §2

Some results are limits rather than exact numbers.

Chain of DGKζ (Q13574 whole entry): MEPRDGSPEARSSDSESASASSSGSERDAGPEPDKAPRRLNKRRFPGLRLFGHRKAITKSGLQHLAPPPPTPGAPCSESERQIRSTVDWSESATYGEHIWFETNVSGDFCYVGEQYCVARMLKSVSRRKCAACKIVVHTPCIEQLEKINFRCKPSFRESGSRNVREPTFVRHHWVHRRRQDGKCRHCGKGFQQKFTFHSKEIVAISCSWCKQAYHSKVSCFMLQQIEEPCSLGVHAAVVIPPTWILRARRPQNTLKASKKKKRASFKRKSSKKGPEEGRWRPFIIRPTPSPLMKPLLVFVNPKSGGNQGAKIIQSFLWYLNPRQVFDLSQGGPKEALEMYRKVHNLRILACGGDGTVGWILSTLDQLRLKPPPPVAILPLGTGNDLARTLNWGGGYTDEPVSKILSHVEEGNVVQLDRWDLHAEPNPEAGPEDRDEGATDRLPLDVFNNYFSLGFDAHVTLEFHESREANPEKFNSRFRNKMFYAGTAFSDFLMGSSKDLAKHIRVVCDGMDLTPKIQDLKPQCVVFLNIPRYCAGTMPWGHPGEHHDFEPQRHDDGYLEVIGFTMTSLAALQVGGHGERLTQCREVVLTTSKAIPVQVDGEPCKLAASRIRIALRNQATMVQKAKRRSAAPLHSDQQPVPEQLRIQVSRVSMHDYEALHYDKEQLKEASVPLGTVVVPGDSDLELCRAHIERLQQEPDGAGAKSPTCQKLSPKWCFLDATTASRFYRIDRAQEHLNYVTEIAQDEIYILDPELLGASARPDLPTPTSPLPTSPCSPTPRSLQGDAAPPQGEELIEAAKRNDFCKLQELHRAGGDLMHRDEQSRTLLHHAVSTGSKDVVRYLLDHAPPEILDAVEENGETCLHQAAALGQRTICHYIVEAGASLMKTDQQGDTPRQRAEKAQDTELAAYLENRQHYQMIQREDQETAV
Chain of DGKα (P23743 whole entry): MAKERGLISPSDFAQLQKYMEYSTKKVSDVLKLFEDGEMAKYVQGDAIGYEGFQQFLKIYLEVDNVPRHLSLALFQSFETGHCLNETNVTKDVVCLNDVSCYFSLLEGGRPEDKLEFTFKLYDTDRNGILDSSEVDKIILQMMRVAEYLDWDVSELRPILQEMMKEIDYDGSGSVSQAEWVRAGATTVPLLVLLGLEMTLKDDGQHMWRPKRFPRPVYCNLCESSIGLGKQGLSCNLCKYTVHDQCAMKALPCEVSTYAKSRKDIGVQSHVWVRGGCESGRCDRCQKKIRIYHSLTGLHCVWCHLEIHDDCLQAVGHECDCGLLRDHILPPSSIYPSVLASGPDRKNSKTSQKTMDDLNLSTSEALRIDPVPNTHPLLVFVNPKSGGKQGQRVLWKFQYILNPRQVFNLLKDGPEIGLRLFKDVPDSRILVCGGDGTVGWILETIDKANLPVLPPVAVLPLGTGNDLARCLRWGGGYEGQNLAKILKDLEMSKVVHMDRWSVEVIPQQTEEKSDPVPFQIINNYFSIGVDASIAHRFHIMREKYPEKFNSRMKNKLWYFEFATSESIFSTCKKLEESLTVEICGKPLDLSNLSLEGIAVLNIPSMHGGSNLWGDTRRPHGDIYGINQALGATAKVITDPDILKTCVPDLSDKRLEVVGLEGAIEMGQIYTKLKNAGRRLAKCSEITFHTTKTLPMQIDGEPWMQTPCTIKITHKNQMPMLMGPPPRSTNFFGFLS

As to `C[C@H]1CN(C(c2ccc(F)cc2)c2ccc(F)cc2)[C@H](CC#N)CN1c1nc2nncn2c2c1ncn2C` [Example 16, 2-((2R,5S)-1-(Bis(4-fluorophenyl)methyl)-5-methyl-4-(1-methyl-1H-[1,2,4]triazolo[3,4-b]purin-4-yl)piperazin-2-yl)acetonitrile], the IC50 on DGKα and on DGKζ was no more than 20 nM in each case.
In the case of `N#CCC[C@@H]1CN(c2nc3nncn3c3scnc23)CCN1C(c1ccc(F)cc1)c1ccc(F)cc1` [Example 17, (R)-3-(1-(Bis(4-fluorophenyl)methyl)-4-(thiazolo[4,5-e][1,2,4]triazolo[4,3-a]pyrimidin-4-yl)piperazin-2-yl)propanenitrile], the figures for the IC50 at DGKα and at DGKζ were no more than 20 nM and 20 to 200 nM, respectively.
Regarding `C[C@@H]1CN(c2nc3nncn3c3c2ncn3CC2CC2)[C@@H](C)CN1C(c1ccc(F)cc1)c1ccc(F)cc1` [Example 18, 4-((2S,5R)-4-(Bis(4-fluorophenyl)methyl)-2,5-dimethylpiperazin-1-yl)-1-(cyclopropylmethyl)-1H-[1,2,4]triazolo[3,4-b]purine], the IC50 at DGKα and at DGKζ was no more than 20 nM throughout.
As for `Cc1nc2c(N3C[C@@H](C)N(C(c4ccc(F)cc4)c4ccc(F)cc4)C[C@@H]3C)nc3nncn3c2n1C[C@@H]1CCCO1` [Example 19, 4-((2S,5R)-4-(Bis(4-fluorophenyl)methyl)-2,5-dimethylpiperazin-1-yl)-2-methyl-1-(((S)-tetrahydrofuran-2-yl)methyl)-1H-[1,2,4]triazolo[3,4-b]purine], the IC50 on DGKα and at DGKζ was no more than 20 nM in each case.
Take `CC[C@@H]1CN(c2nc3nncn3c3c2nc(C)n3C[C@@H]2CCCO2)[C@@H](C)CN1C(c1ccc(F)cc1)c1ccc(F)cc1` [Example 20, 4-((2S,5R)-4-(Bis(4-fluorophenyl)methyl)-5-ethyl-2-methylpiperazin-1-yl)-2-methyl-1-(((S)-tetrahydrofuran-2-yl)methyl)-1H-[1,2,4]triazolo[3,4-b]purine]: the IC50 on DGKα and on DGKζ was no more than 20 nM in each case.
Take `CC[C@H]1CN(C(c2ccc(F)cc2)c2ccc(F)cc2)[C@H](CC)CN1c1nc2nncn2c2c1ncn2CC1CC1` [Example 21, 4-((2S,5R)-4-(Bis(4-fluorophenyl)methyl)-2,5-diethylpiperazin-1-yl)-1-(cyclopropylmethyl)-1H-[1,2,4]triazolo[3,4-b]purine]: the IC50 at DGKα and at DGKζ was no more than 20 nM in each case.
As for `CC(C)[C@@H](c1ccc(F)cc1)N1C[C@H](C)N(c2nc3nncn3c3c2ncn3CC2CC2)C[C@H]1C` [Example 22, 1-(Cyclopropylmethyl)-4-((2S,5R)-4-((S)-1-(4-fluorophenyl)-2-methylpropyl)-2,5-dimethylpiperazin-1-yl)-1H-[1,2,4]triazolo[3,4-b]purine], the IC50 on DGKα and on DGKζ was no more than 20 nM throughout.
For `CC(C)[C@H](c1ccc(F)cc1)N1C[C@H](C)N(c2nc3nncn3c3c2ncn3CC2CC2)C[C@H]1C` [Example 23, 1-(cyclopropylmethyl)-4-((2S,5R)-4-((R)-1-(4-fluorophenyl)-2-methylpropyl)-2,5-dimethylpiperazin-1-yl)-1H-[1,2,4]triazolo[3,4-b]purine], the IC50 on DGKα and on DGKζ was no more than 20 nM throughout.
Consider `C[C@@H]1CN(c2nc3nncn3c3c2ncn3CC2CC2)[C@@H](C)CN1[C@@H](c1ccc(F)cc1)c1ccc(OC(F)(F)F)cn1` [Example 24, 1-(Cyclopropylmethyl)-4-((2S,5R)-4-((S)-(4-fluorophenyl)(5-(trifluoromethoxy)pyridin-2-yl)methyl)-2,5-dimethylpiperazin-1-yl)-1H-[1,2,4]triazolo[3,4-b]purine], for which the IC50 on DGKα and on DGKζ was no more than 20 nM throughout.

The values are drawn from patent US20230399342A1 (Incyte Corporation, priority 2022, published 2023).
